Experimental data taken from publication PMC9551036, “A selective and orally bioavailable VHL-recruiting PROTAC achieves SMARCA2 degradation in vivo” (Nature Communications, 2022).
Where “and” joins values, the source holds several entries; their conditions need not be identical. Equal values may be shown once. Read-outs that look alike come from different tables or passages of the source.

Assays:
[1] = target: SMARCA2 (Homo sapiens, UniProt P51531); test: Imaging-based SMARCA2 protein assay in RKO cells; format: cell-based; set-up: endogenous in cells; host or cells: RKO, NCI-H1568, A549, HCT116, LU99, HCC-364, HCT-15, HCC4006, SK-N-AS; conditions: individual replicates
Method: 1250 cells per well in 60 µl medium were plated in flat bottom, poly-lysin coated 384-well plates (CellCarrier Ultra, Perkin Elmer). The next day, test compounds (10 µl of serial dilutions) and DMSO controls were diluted in DMEM medium such that the final DMSO content was <1% or were added using an ultrasound dispensing system. 4 wells were reserved for a background measurement. […] After aspirating the fixing solution, the cells were washed once with 25 µl PBS. 25 µl of blocking buffer (10% goat serum in PBS) was added and cells were incubated for 30 min, then washed once with PBS. […] Cells were again washed once with PBS. […] The cell layer was then washed once with 25 µl PBS, the wells were filled with 25 µl PBS and the plates were sealed with an adhesive sheet. They were then imaged on the Opera Phoenix (mean intensity in the nucleus). […] EC50 values were computed using a 4-parametric logistic model.

[2] = target: T1, PBRM1 BD (Homo sapiens, UniProt Q86U86); test: TR-FRET binary and ternary (PROTAC + VCB) affinity, PBRM1 bromodomain; format: binding; conditions: individual replicates
T1 construct: GST (TEV site) (N); made in house; host or cells: Escherichia coli BL21(DE3)

[3] = target: T2, (Homo sapiens, UniProt P51532); test: TR-FRET ternary complex affinity and cooperativity, SMARCA4; format: binding
T2 construct: P51532, residues 1448–1569 with additional N-terminal SM residues; GST (TEV site) (N); His6 (TEV site) (N, cleaved yes); made in house; host or cells: SMARCA4^BD: Escherichia coli BL21(DE3)

[4] = target: T3, PBRM1BD5 (Homo sapiens, UniProt Q86U86); test: TR-FRET ternary complex affinity and cooperativity, PBRM1; format: binding
T3 construct: GST (TEV site) (N); His6 (TEV site) (N, cleaved yes); made in house; host or cells: PBRM1^BD5: Escherichia coli BL21(DE3)

[5] = target: T4, VCB: PROTAC: SMARCA2^BD ternary complex (Homo sapiens, UniProt P51531); test: TR-FRET ternary complex affinity and cooperativity, SMARCA2; format: binding
T4 construct: P51531-2, residues 1373-1493 with additional N-terminal SM residues; GST (TEV site) (N); His6 (TEV site) (N, cleaved yes); made in house; host or cells: SMARCA2^BD: Escherichia coli BL21(DE3)

[6] = system: NCI-H1568 cells; test: Cell viability assay (CellTiter Glo) in NCI-H1568; format: cell-based, human; conditions: for EC50: read-out: EC50 cell proliferation (CellTiter Glo); for IC50: NCI-H1568, (18h), CellTiter Glo, individual replicates, read-out: NCI-H1568 (18h) CTG
Method: 500–2000 cells were seeded in white, clear bottom 96-well plates (Corning or Perkin Elmer) in 180–200 µl medium per well. The next day, compounds were added using a digital dispenser and a T0 sample was measured for reference. […], and viability (luminescence) was measured using CellTiter Glo or CellTiter Glo 2.0 (Promega) according to manufacturer’s instructions after equilibrating cells and reagents at room temperature and 10–20 min incubation time while shaking.

[7] = target: VCB: PROTAC: SMARCA2^BD ternary complex (Homo sapiens, UniProt P40337+P51531); test: TR-FRET ternary complex affinity and cooperativity, SMARCA2; format: binding; set-up: P51531-2, residues 1373-1493 with additional N-terminal SM residues; GST (TEV site) (N); His6 (TEV site) (N, cleaved yes); made in house; host or cells: SMARCA2^BD: Escherichia coli BL21(DE3)
[8] = target: VCB: PROTAC: SMARCA4^BD ternary complex (Homo sapiens, UniProt P40337+P51532); test: TR-FRET ternary complex affinity and cooperativity, SMARCA4; format: binding; set-up: P51532, residues 1448–1569 with additional N-terminal SM residues; GST (TEV site) (N); His6 (TEV site) (N, cleaved yes); made in house; host or cells: SMARCA4^BD: Escherichia coli BL21(DE3)
[9] = 4h, read-out: RKO (4h) SMARCA2 DC50
[10] = 18h, read-out: RKO (18h) SMARCA2 DC50
[11] = PROTAC + VCB, read-out: Ternary PBRM1 BD EC50 (PROTAC + VCB)
[12] = binary, PROTAC alone, read-out: PBRM1 EC50
[13] = TR-FRET competition for SMARCA4BD, without VCB, mean ± SD, read-out: TR-FRET SMARCA4BD EC50
[14] = binary, PROTAC alone, individual replicates, read-out: SMARCA4 BD EC50
[15] = TR-FRET competition for PBRM1BD5, without VCB, mean ± SD, read-out: TR-FRET PBRM1BD EC50
[16] = TR-FRET competition for SMARCA2BD, without VCB, mean ± SD, read-out: TR-FRET SMARCA2BD EC50
[17] = binary, PROTAC alone, individual replicates, read-out: SMARCA2 BD EC50
[18] = PROTAC + VCB, individual replicates, read-out: Ternary SMARCA2 BD EC50 (PROTAC + VCB)
[19] = TR-FRET competition for SMARCA2BD, + VCB, mean ± SD, read-out: TR-FRET Ternary SMARCA2BD EC50 (PROTAC + VCB)
[20] = PROTAC + VCB, individual replicates, read-out: Ternary SMARCA4 BD EC50 (PROTAC + VCB)
[21] = TR-FRET competition for SMARCA4BD, + VCB, mean ± SD, read-out: TR-FRET Ternary SMARCA4BD EC50 (PROTAC + VCB)

Sequence of SMARCA2 (P51531 whole entry): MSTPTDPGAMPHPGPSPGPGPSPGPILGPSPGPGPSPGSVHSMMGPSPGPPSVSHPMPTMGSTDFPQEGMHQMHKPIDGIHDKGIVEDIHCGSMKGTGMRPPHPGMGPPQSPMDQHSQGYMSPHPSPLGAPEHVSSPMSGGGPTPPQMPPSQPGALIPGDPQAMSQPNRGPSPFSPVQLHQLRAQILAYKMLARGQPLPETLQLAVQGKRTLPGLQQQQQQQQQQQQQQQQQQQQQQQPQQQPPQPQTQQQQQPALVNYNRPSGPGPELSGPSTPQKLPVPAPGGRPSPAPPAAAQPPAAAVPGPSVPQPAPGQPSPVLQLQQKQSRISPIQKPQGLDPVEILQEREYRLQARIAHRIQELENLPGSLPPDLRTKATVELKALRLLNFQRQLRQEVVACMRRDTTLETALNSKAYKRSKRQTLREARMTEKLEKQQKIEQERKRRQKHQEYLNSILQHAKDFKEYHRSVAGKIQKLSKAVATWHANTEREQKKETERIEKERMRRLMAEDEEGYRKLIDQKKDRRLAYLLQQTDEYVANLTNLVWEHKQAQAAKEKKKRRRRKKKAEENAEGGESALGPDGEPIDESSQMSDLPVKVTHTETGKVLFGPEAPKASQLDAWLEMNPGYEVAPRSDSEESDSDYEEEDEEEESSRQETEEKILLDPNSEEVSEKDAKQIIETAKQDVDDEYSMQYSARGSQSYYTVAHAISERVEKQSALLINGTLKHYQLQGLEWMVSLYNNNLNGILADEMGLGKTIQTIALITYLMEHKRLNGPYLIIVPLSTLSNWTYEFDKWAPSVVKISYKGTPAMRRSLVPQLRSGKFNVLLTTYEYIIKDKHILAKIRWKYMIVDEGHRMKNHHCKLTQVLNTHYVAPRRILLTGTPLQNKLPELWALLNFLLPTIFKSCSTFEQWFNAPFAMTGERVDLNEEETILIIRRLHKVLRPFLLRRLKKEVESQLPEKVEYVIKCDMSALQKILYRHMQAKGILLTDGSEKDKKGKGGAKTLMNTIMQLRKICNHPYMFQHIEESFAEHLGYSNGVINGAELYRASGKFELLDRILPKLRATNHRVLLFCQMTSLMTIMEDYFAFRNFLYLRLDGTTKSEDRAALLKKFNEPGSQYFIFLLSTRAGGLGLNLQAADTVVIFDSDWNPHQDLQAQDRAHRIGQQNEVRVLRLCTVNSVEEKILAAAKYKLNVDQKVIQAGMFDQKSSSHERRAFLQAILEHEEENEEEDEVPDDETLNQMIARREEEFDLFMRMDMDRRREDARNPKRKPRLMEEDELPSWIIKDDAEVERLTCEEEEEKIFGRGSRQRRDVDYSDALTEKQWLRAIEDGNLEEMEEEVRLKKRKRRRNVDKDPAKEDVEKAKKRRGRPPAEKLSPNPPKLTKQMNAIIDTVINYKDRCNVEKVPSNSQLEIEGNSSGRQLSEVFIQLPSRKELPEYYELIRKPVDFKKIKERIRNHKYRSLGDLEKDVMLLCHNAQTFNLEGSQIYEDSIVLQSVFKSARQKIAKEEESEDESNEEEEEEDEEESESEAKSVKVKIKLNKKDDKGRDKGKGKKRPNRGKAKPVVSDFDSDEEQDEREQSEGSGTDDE
T3 sequence (Q86U86 645-766): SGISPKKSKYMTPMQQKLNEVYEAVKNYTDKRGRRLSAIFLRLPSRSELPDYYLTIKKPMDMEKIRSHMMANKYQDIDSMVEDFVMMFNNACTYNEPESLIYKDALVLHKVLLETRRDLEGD
Sequence of VCB: PROTAC: SMARCA4^BD ternary complex (P51532 1448-1569): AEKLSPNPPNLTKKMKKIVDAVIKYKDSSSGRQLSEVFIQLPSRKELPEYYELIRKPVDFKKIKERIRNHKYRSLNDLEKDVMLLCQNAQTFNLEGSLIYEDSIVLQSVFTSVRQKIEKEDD
Sequence of VCB: PROTAC: SMARCA4^BD ternary complex (P40337 54-213): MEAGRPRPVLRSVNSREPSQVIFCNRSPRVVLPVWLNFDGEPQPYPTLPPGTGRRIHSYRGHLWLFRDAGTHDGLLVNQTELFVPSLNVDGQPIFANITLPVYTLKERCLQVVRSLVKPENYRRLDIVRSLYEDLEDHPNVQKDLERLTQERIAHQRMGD
Sequence of VCB: PROTAC: SMARCA4^BD ternary complex (Q15369 17-112 partner): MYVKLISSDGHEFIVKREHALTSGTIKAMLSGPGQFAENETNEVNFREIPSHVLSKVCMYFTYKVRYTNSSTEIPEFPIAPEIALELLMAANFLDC
Sequence of VCB: PROTAC: SMARCA4^BD ternary complex (Q15370 1-104 partner): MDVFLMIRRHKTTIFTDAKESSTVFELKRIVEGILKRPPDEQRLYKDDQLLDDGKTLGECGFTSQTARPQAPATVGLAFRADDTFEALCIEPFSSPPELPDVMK
T2 sequence (P51532 1448-1569): as the sequence (P51532 1448-1569) above
Sequence of VCB: PROTAC: SMARCA2^BD ternary complex (Homo sapiens, UniProt P40337+P51531) (P51531 with tags, fused parts or gaps isoform P51531-2): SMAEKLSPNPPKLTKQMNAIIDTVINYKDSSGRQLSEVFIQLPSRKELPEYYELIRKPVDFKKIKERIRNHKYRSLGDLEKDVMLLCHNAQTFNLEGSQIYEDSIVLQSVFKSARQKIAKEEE
Sequence of VCB: PROTAC: SMARCA2^BD ternary complex (Homo sapiens, UniProt P40337+P51531) (P40337 54-213): as the sequence (P40337 54-213) above
Sequence of VCB: PROTAC: SMARCA2^BD ternary complex (Homo sapiens, UniProt P40337+P51531) (Q15369 17-112 partner): as the sequence (Q15369 17-112 partner) above
Sequence of VCB: PROTAC: SMARCA2^BD ternary complex (Homo sapiens, UniProt P40337+P51531) (Q15370 1-104 partner): as the sequence (Q15370 1-104 partner) above
T4 sequence (P51531 with tags, fused parts or gaps isoform P51531-2): as the sequence (P51531 with tags, fused parts or gaps isoform P51531-2) above

Structure (SMILES)	DC50 [1, 9]	DC50 [1, 10]	EC50 [2, 11]	EC50 [2, 12]	EC50 [3, 13] [nM]	EC50 [3, 14]	EC50 [4, 15] [nM]	EC50 [5, 16] [nM]	EC50 [5, 17]	EC50 ([6]; Homo sapiens, NCI-H1568, […]) [nM]	IC50 [6]	EC50 [7, 18]	EC50 [7, 19] [nM]	EC50 [8, 20]	EC50 [8, 21] [nM]	EC50 ([2]; PBRM1 EC50, binary, PROTAC alone)	EC50 ([2]; Ternary PBRM1 BD EC50 (PROTAC + VCB), PROTAC + VCB)	EC50 [4] [nM]	EC50 ([6]; NCI-H1568 ([…]), mean ± SD) [nM]
Cc1ncsc1-c1ccc([C@H](CCCCCN2CCC(c3ccc4c(c3)n(C3CCCC3)c3nc(=O)c5c(Br)cccc5n43)CC2)NC(=O)[C@@H]2C[C@@H](O)CN2C(=O)[C@@H](NC(=O)C2(F)CC2)C(C)(C)C)cc1 [compound 11]	1.71 nM and 0.766 nM and 2.04 nM and 3.68 nM	0.942 nM and 1.07 nM and 0.993 nM and 0.885 nM	3.17 nM and 4.26 nM and 3.96 nM	43.1 nM and 50 nM and 41.1 nM and 31.5 nM	279 ± 40	241 nM and 322 nM and 280 nM	41 ± 8	123 ± 45	183 nM and 73.1 nM and 107 nM and > 400 nM and 65.7 nM and 113 nM and 145 nM and 121 nM and 105 nM and 125 nM and 146 nM and 228 nM and 144 nM	7 ± 3	8.72 nM and 10.4 nM and 5.64 nM and 9.09 nM and 2.95 nM and 6.31 nM	26.6 nM and 19.7 nM and 14.3 nM and 29.6 nM and 31.9 nM and 31.5 nM and 26.3 nM and 35.9 nM and 20.9 nM and 21.5 nM and 24.4 nM	25 ± 6	65.3 nM and 77.7 nM and 60.4 nM	67 ± 9				
Cc1ncsc1-c1ccc([C@H](CC[C@H](C)CCN2CCC(c3ccc4c(c3)n(C3CCCC3)c3nc(=O)c5c(Br)cccc5n43)CC2)NC(=O)[C@@H]2C[C@H](O)CN2C(=O)[C@@H](NC(=O)C2(F)CC2)C(C)(C)C)cc1 [compound 12]	> 25000 nM	10700 nM and 4780 nM and 8270 nM and > 25000 nM			347 ± 41	> 400 nM and 339 nM and 302 nM		203 ± 65	125 nM and 272 nM and 263 nM and 154 nM	236 ± 175	411 nM and 372 nM and 85.9 nM	148 nM and 161 nM and 256 nM and 158 nM	181 ± 44	> 400 nM and 385 nM and 314 nM	367 ± 38	67.7 nM and 82.1 nM and 74.9 nM	67.9 nM and 85.8 nM and 79.7 nM	75 ± 6	
CN1CCN(c2nc(=O)c3c(Cl)cccc3o2)CC1 [compound 13]	> 25000 nM	> 25000 nM	> 10000 nM	> 10000 nM		> 10000 nM	> 10000		> 10000 nM		> 10000 nM	> 10000 nM		> 10000 nM					> 10000
CN1CCN(c2nc(=O)c3ccccc3o2)CC1 [compound 14]	> 25000 nM	> 25000 nM	> 10000 nM	> 10000 nM		> 10000 nM	> 10000		> 10000 nM		> 10000 nM	> 10000 nM		> 10000 nM					> 10000
CN1CCN(c2nc(=O)c3c(Br)cccc3o2)CC1 [compound 15]	> 25000 nM	> 25000 nM	> 10000 nM	> 10000 nM		> 10000 nM	> 10000		> 10000 nM		> 10000 nM	> 10000 nM		> 10000 nM					> 10000
CN1CCN(c2nc(=O)c3c(I)cccc3o2)CC1 [compound 16]	> 25000 nM	> 25000 nM	> 10000 nM	> 10000 nM		> 10000 nM	> 10000		> 10000 nM		> 10000 nM	> 10000 nM		> 10000 nM					> 10000
CN1CCN(c2nc(=O)c3c(F)cccc3o2)CC1 [compound 17]	> 25000 nM	> 25000 nM	> 10000 nM	> 10000 nM		> 10000 nM	> 10000		> 10000 nM		> 10000 nM	> 10000 nM		> 10000 nM					> 10000
Cc1ncsc1-c1ccc(CNC(=O)[C@@H]2C[C@H](O)CN2C(=O)[C@@H](NC(=O)C2(F)CC2)C(C)(C)C)c(OCCN2CCC(c3ccc4c(c3)n(C3CCCC3)c3nc(=O)c5c(Br)cccc5n43)CC2)c1 [compound 19]	> 25000 nM	> 25000 nM	38.5 nM and 41 nM and 40.2 nM	35.2 nM and 39.5 nM and 40.1 nM	158 ± 27	194 nM and 151 nM and 129 nM	38 ± 2	85 ± 7	79.1 nM and 82 nM and 94.2 nM		595 nM and 1050 nM and 287 nM	69.1 nM and 75.9 nM and 70.4 nM	72 ± 3	201 nM and 160 nM and 159 nM	173 ± 19				564 ± 384
Cc1ncsc1-c1ccc(CNC(=O)[C@@H]2C[C@@H](O)CN2C(=O)[C@@H](NC(=O)C2(F)CC2)C(C)(C)C)c(OCCN2CCC(c3ccc4c(c3)n(C3CCCC3)c3nc(=O)c5c(Br)cccc5n43)CC2)c1 [compound 20]	> 25000 nM		30.2 nM and 37.8 nM and 37.5 nM	35.1 nM and 43.6 nM and 36.5 nM and 35.9 nM	120 ± 17	101 nM and 114 nM and 130 nM and 140 nM	38 ± 4	78 ± 20	95.1 nM and 98.5 nM and 63.7 nM and 90.1 nM and 54.6 nM		80.9 nM and 35.3 nM and 140 nM	140 nM and 137 nM and 122 nM and 109 nM and 217 nM	141 ± 42	312 nM and 310 nM and 294 nM and 321 nM	309 ± 11				74 ± 52
Cc1ncsc1-c1ccc(CNC(=O)[C@@H]2C[C@@H](O)CN2C(=O)[C@@H](NC(=O)C2(F)CC2)C(C)(C)C)c(OCCOCCOCCN2CCC(c3ccc4c(c3)n(C3CCCC3)c3nc(=O)c5c(Br)cccc5n43)CC2)c1 [compound 21]	> 25000 nM	77.5 nM and 151 nM and 100 nM	33.9 nM and 37.8 nM and 41.4 nM	71.9 nM and 80.2 nM and 77.4 nM	520 ± 73	443 nM and 585 nM and 542 nM	76 ± 4	255 ± 9	246 nM and 264 nM and 255 nM		257 nM and 199 nM and 216 nM	138 nM and 122 nM and 143 nM	134 ± 11	119 nM and 144 nM and 128 nM	130 ± 13				223 ± 30
Cc1ncsc1-c1ccc(CNC(=O)[C@@H]2C[C@@H](O)CN2C(=O)[C@@H](NC(=O)C2(F)CC2)C(C)(C)C)c(OCCOCCOCCOCCN2CCC(c3ccc4c(c3)n(C3CCCC3)c3nc(=O)c5c(Br)cccc5n43)CC2)c1 [compound 22]	85.8 nM and 400 nM and 157 nM	97.4 nM and 276 nM and 121 nM	33.2 nM and 39.2 nM and 42.6 nM	84.2 nM and 107 nM and 111 nM (2×)	813 ± 126	659 nM and 965 nM and 837 nM and 819 nM	103 ± 13	274 ± 41	242 nM and 328 nM and 288 nM and 245 nM		280 nM and 175 nM and 133 nM	95.1 nM and 86.8 nM and 90.2 nM and 144 nM	102 ± 27	73.1 nM and 97.3 nM and 87.2 nM and 102 nM	89 ± 13				187 ± 76
